The results in this text go back to PubChem BioAssay (NCI).

Where “and” joins values, the source holds several entries; their conditions need not be identical. Equal values may be shown once.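 All cell lines were grown in 96-well plates and treated with compound for 48 hours. GI50 is the concentration that inhibits growth by half. TGI marks complete inhibition of growth.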 Some results are limits rather than exact numbers.

Among the test systems are SR leukemia; UO-31 renal; HCT-15 colon; LOX IMVI melanoma; HL-60(TB) leukemia; RXF 393 renal; EKVX NSCLC; OVCAR-4 ovarian; COLO 205 colon; K-562 leukemia.
Holding throughout (experiment): NCI tumour cell line growth inhibition, 48 h

Take `Cn1c(C(=O)c2ccncc2)cc2ccccc21`: the GI50 is 63.1 µM in the experiment with SR leukemia; 27.4 µM with UO-31 renal; 90.9 µM with HCT-15 colon; above 100 µM in the experiment on LOX IMVI melanoma; 76.5 µM in the experiment with HL-60(TB) leukemia; 35.1 µM with RXF 393 renal. The GI50 was 78.1 µM in the experiment with EKVX NSCLC, above 100 µM in the experiment with OVCAR-4 ovarian, above 100 µM in the experiment on COLO 205 colon and 59.3 µM with K-562 leukemia. Also, the TGI in the experiment with SR leukemia, with UO-31 renal, in the experiment with HCT-15 colon, with LOX IMVI melanoma, in the experiment with HL-60(TB) leukemia and with RXF 393 renal was above 100 µM each time. Moreover, the TGI with EKVX NSCLC, in the experiment with OVCAR-4 ovarian, with COLO 205 colon and in the experiment with K-562 leukemia was above 100 µM each time.

Consider `CC1=CC(=O)CC2(C)CC[C@@H]3C[C@]12OC3(C)C` (stereo partly specified), for which the TGI in the experiment with SR leukemia, with UO-31 renal, in the experiment with HCT-15 colon, in the experiment with LOX IMVI melanoma, in the experiment with HL-60(TB) leukemia and with RXF 393 renal was above 100 µM each time. In addition, the TGI in the experiment with EKVX NSCLC, with OVCAR-4 ovarian, in the experiment on COLO 205 colon and in the experiment with K-562 leukemia was above 100 µM each time.

For the compound `CC(C)c1c(-c2ccccc2)nc2c(C#N)c[nH]n2c1=O`, the GI50 in the experiment with SR leukemia was 31.1 µM; with UO-31 renal, 26.5 µM; in the experiment with HCT-15 colon, 31.8 µM; in the experiment with LOX IMVI melanoma, 29 µM; with HL-60(TB) leukemia, 22.3 µM; in the experiment with RXF 393 renal, 29.3 µM. Further, the GI50 is 49.4 µM in the experiment on EKVX NSCLC, 25.6 µM with OVCAR-4 ovarian, 25.1 µM in the experiment on COLO 205 colon and 33.8 µM in the experiment on K-562 leukemia. Besides, the TGI in the experiment with SR leukemia was above 100 µM; in the experiment with UO-31 renal, 98.6 µM; in the experiment with HCT-15 colon it was above 100 µM; in the experiment on LOX IMVI melanoma, above 91.2 µM; in the experiment with HL-60(TB) leukemia, 60.4 µM; in the experiment on RXF 393 renal it was above 93.4 µM. For the same compound, the TGI is above 100 µM in the experiment with EKVX NSCLC, above 90 µM in the experiment with OVCAR-4 ovarian, 75.2 µM in the experiment on COLO 205 colon and above 100 µM with K-562 leukemia.

For the compound `CC1CCC2(NC1)OC1CC3C4CC=C5CC(O)CCC5(C)C4CCC3(C)C1C2C` (stereo unspecified), the TGI is 9.63 µM and 12.4 µM in the experiment on SR leukemia; 37.8 µM and 13.8 µM in the experiment with UO-31 renal; above 100 µM with HCT-15 colon; 57.3 µM and > 63.8 µM in the experiment with LOX IMVI melanoma; 31.5 µM and 29.9 µM in the experiment with HL-60(TB) leukemia; 60.2 µM and 39.9 µM in the experiment on RXF 393 renal. Further, the TGI in the experiment with EKVX NSCLC is above 100 µM; with OVCAR-4 ovarian, 58.8 µM and 53.7 µM; in the experiment with COLO 205 colon, above 100 µM; with K-562 leukemia, above 100 µM. Further, the GI50 in the experiment with UO-31 renal was 18.2 µM and 6.3 µM; in the experiment on LOX IMVI melanoma it was 19.9 µM and 4.93 µM; in the experiment with OVCAR-4 ovarian, 22.3 µM and 5.29 µM.

In the case of `COc1ccc(-c2ccncc2)cc1C(N)=O`, the GI50 with SR leukemia, with UO-31 renal, in the experiment on HCT-15 colon, in the experiment with LOX IMVI melanoma, in the experiment with HL-60(TB) leukemia and in the experiment on RXF 393 renal was above 25 µM each time. Further, the GI50 in the experiment with EKVX NSCLC, in the experiment on OVCAR-4 ovarian, with COLO 205 colon and in the experiment on K-562 leukemia was above 25 µM in each case. For the same compound, the TGI in the experiment on SR leukemia, in the experiment with UO-31 renal, in the experiment with HCT-15 colon, in the experiment on LOX IMVI melanoma, in the experiment on HL-60(TB) leukemia and in the experiment on RXF 393 renal was above 25 µM throughout. Also, the TGI in the experiment on EKVX NSCLC, with OVCAR-4 ovarian, in the experiment on COLO 205 colon and with K-562 leukemia was above 25 µM throughout.

Consider `O=[N+]([O-])c1cc(Cl)c2[nH]c3c(Cl)cc([N+](=O)[O-])cc3c2c1`, for which the GI50 with SR leukemia was 0.32 µM; in the experiment on UO-31 renal it was 0.189 µM; in the experiment on HCT-15 colon, 0.355 µM; in the experiment on LOX IMVI melanoma, 0.308 µM; with HL-60(TB) leukemia, 0.304 µM; in the experiment on RXF 393 renal it was 0.461 µM. The GI50 in the experiment on EKVX NSCLC was 0.244 µM; with OVCAR-4 ovarian it was 0.263 µM; in the experiment with COLO 205 colon, 0.469 µM; in the experiment on K-562 leukemia, 0.243 µM. Also, the TGI was above 100 µM with SR leukemia; 1.38 µM in the experiment with UO-31 renal; above 100 µM in the experiment on HCT-15 colon; above 42 µM in the experiment on LOX IMVI melanoma; 6.34 µM with HL-60(TB) leukemia; 18.8 µM in the experiment on RXF 393 renal. Moreover, the TGI in the experiment on EKVX NSCLC was above 27.1 µM; in the experiment on OVCAR-4 ovarian it was above 100 µM; in the experiment on COLO 205 colon, 1.99 µM; in the experiment with K-562 leukemia, above 100 µM.

Take `NCCSSCCN`: the TGI in the experiment with SR leukemia, in the experiment with UO-31 renal, in the experiment with HCT-15 colon, with LOX IMVI melanoma, in the experiment with HL-60(TB) leukemia and in the experiment with RXF 393 renal was above 100 µM each time. The TGI in the experiment with EKVX NSCLC, in the experiment on OVCAR-4 ovarian, with COLO 205 colon and in the experiment with K-562 leukemia was above 100 µM in each case.

Consider `Cn1c(-c2c(N)n(Nc3cccc(Cl)c3)c3nc(C#N)c(C#N)nc23)nc2ccccc21`, for which the GI50 with SR leukemia was 2.53 µM; with UO-31 renal it was 3.74 µM; with HCT-15 colon, 3.45 µM; in the experiment on LOX IMVI melanoma, 5.25 µM; with HL-60(TB) leukemia, 8.19 µM; in the experiment with RXF 393 renal it was 0.0138 µM. In addition, the GI50 in the experiment on EKVX NSCLC was 0.839 µM; in the experiment with OVCAR-4 ovarian, 1.36 µM; in the experiment with COLO 205 colon it was 6.35 µM; with K-562 leukemia, 5.43 µM. The TGI with SR leukemia is 41.4 µM; in the experiment with UO-31 renal, 11.3 µM; in the experiment with HCT-15 colon it was 17.2 µM; with LOX IMVI melanoma it was 11.5 µM; in the experiment on HL-60(TB) leukemia, above 50 µM; with RXF 393 renal it was 3.54 µM. Also, the TGI in the experiment with EKVX NSCLC came to 7.45 µM; in the experiment with OVCAR-4 ovarian, 16.4 µM; with COLO 205 colon, 18.2 µM; in the experiment with K-562 leukemia, 25.5 µM.

Take `COc1cc2ncn(-c3cc(OCc4ccccc4C(F)(F)F)c(C(=O)N(C)C)s3)c2cc1OC`: the GI50 in the experiment with SR leukemia is above 25 µM; with UO-31 renal, 9.69 µM; with HCT-15 colon it was above 25 µM; in the experiment on LOX IMVI melanoma it was above 25 µM; in the experiment on HL-60(TB) leukemia it was above 25 µM; in the experiment on RXF 393 renal, 8.53 µM. Further, the GI50 in the experiment with EKVX NSCLC is above 25 µM; with OVCAR-4 ovarian, 18.1 µM; with COLO 205 colon, above 16.8 µM; in the experiment with K-562 leukemia it was above 21.3 µM. The TGI is above 25 µM in the experiment on SR leukemia; above 25 µM with UO-31 renal; above 25 µM with HCT-15 colon; above 25 µM in the experiment with LOX IMVI melanoma; above 25 µM in the experiment with HL-60(TB) leukemia; above 18.7 µM in the experiment with RXF 393 renal. Moreover, the TGI in the experiment on EKVX NSCLC, in the experiment on OVCAR-4 ovarian, in the experiment on COLO 205 colon and in the experiment with K-562 leukemia was above 25 µM throughout.

Regarding `CS(=O)(=O)CCNCc1cc(-c2cc3c(Nc4ccc(OCc5cccc(F)c5)c(Cl)c4)ncnc3s2)cs1`, the GI50 was 7.39 µM in the experiment on SR leukemia; 4.52 µM in the experiment with UO-31 renal; 5.55 µM in the experiment on HCT-15 colon; 5.56 µM with LOX IMVI melanoma; 4.18 µM in the experiment with HL-60(TB) leukemia; 2.27 µM in the experiment with RXF 393 renal. The GI50 is 3.42 µM in the experiment with EKVX NSCLC, 14.4 µM in the experiment with OVCAR-4 ovarian, 9.61 µM in the experiment with COLO 205 colon and 6.25 µM in the experiment with K-562 leukemia. The TGI in the experiment with SR leukemia was above 25 µM; in the experiment with UO-31 renal, above 25 µM; in the experiment on HCT-15 colon it was above 20.9 µM; with LOX IMVI melanoma, 16.3 µM; in the experiment on HL-60(TB) leukemia, above 25 µM; in the experiment on RXF 393 renal, 11.8 µM. Moreover, the TGI was above 25 µM with EKVX NSCLC, above 25 µM in the experiment with OVCAR-4 ovarian, above 25 µM in the experiment on COLO 205 colon and 17.8 µM in the experiment with K-562 leukemia.

With `COc1ccc2c(=O)cc(-c3ccccc3)[nH]c2c1`, the GI50 with SR leukemia was 0.258 µM; in the experiment on UO-31 renal it was 0.716 µM; in the experiment on HCT-15 colon, 0.518 µM; in the experiment on LOX IMVI melanoma it was 4.17 µM; with HL-60(TB) leukemia, 0.256 µM; in the experiment on RXF 393 renal it was 0.762 µM. The GI50 was 2.25 µM in the experiment on EKVX NSCLC, 3.28 µM in the experiment with OVCAR-4 ovarian, 0.364 µM in the experiment on COLO 205 colon and 0.439 µM in the experiment with K-562 leukemia. Further, the TGI with UO-31 renal was above 100 µM; in the experiment with HCT-15 colon it was above 100 µM; with LOX IMVI melanoma, above 100 µM; with HL-60(TB) leukemia, 1.19 µM; in the experiment with EKVX NSCLC, above 100 µM; with OVCAR-4 ovarian, above 100 µM. Besides, the TGI was 1.55 µM in the experiment on COLO 205 colon and above 100 µM in the experiment with K-562 leukemia.

For `Cc1ncc(C(=O)Nc2ccc(CN3CCN(C)CC3)c(C(F)(F)F)c2)cc1C#Cc1cnc2cccnn12`, the GI50 is 0.293 µM with SR leukemia; 0.242 µM with UO-31 renal; 0.593 µM in the experiment with HCT-15 colon; 0.183 µM with LOX IMVI melanoma; 0.195 µM in the experiment on HL-60(TB) leukemia; 0.438 µM with RXF 393 renal. The GI50 with EKVX NSCLC is 0.683 µM; with OVCAR-4 ovarian it was 0.205 µM; in the experiment on COLO 205 colon it was 0.2 µM; in the experiment with K-562 leukemia, 0.005 µM. Further, the TGI in the experiment with SR leukemia came to 50 µM; with UO-31 renal, 1.91 µM; in the experiment on HCT-15 colon it was 4.45 µM; in the experiment with LOX IMVI melanoma it was 0.672 µM; in the experiment with HL-60(TB) leukemia, 1.17 µM; in the experiment on RXF 393 renal, 1.14 µM. For the same compound, the TGI amounted to 2.9 µM in the experiment with EKVX NSCLC, 1.98 µM in the experiment with OVCAR-4 ovarian, 1.31 µM in the experiment with COLO 205 colon and 50 µM in the experiment on K-562 leukemia.
